{"source": "paper PMC9416111", "about": "“Synthesis and Biological Activity of Unsymmetrical Monoterpenylhetaryl Disulfides” (Molecules, 2022)", "tested_on": "influenza virus A/Puerto Rico/8/34 (H1N1)", "test": "Antiviral cell protection assay in MDCK cells", "assay_type": "cell-based"}
{"smiles": "CC1(C)[C@H]2CC[C@@H](CSSc3ncccc3C(=O)O)[C@@H]1C2", "note": "[Compound 2d, 2-((((1S,2R,5S)-6,6-dimethylbicyclo[3.1.1]heptan-2-yl)methyl)disulfanyl)nicotinic acid]", "values": [{"measurement": "virus-inhibiting activity, in words", "result": "higher than that of Rimantadine"}]}
